Test results from patent publication US20260022118A1, “HETEROCYCLIC COMPOUNDS AS NRAS INHIBITORS” (Board of Regents, The University of Texas System, priority 2023, published 2026).
Like-named read-outs stand apart in the source and are kept apart here.

Tested on: THP-1 cells expressing G12D (NRAS G12D)
Experiment: Inhibition of NRAS G12D-mediated phosphorylation of ERK (AlphaLISA p-ERK1/2) in THP-1 cells
Format: cell-based
Settings: 2 hours incubation, HBSS with 0% or 10% FBS, p-ERK1/2 (Thr202/Tyr204) AlphaLISA, read-out: pERK THP-1 IC50
Experimental: Inhibition of NRAS G12D-Mediated Phosphorylation of ERK by Exemplary Compounds of Formulas I, II, and III.
This Example illustrates that exemplary compounds and salts thereof described herein inhibit the phosphorylation of ERK downstream of NRAS G12D.
THP-1 cells (ATCC TIB-202) expressing G12D were maintained in RPMI-1640 medium supplemented with 10% fetal bovine serum (FBS), 0.05 mM 2-mercaptoethanol, and penicillin/streptomycin. Cells (20,000/well) were seeded onto a 384 well plate in 20 μL of HBSS supplemented with 0% or 10% FBS. Cells were incubated in the absence or presence of various concentrations of test compound (final 1% DMSO) for 2 hours. p-ERK expression was assessed using the AlphaLISA SureFire Ultra p-ERK1/2 (Thr202/Tyr204) (PerkinElmer®, ALSU-PERK-A10K) following manufacturer recommendation. Plates were read on a PerkinElmer® Envision Multimode plate reader. Dose-response curves were analyzed using IC50 regression curve fitting (GeneData Screener). Curves were plotted as a percent control and normalized by high controls without inhibitor (100%), and low controls (0%) containing 1 μM of trametinib, a potent MEK inhibitor.

| SMILES | IC50 (Homo sapiens, THP-1, 2 h) [nM] | IC50 [nM] |
| --- | --- | --- |
| C#Cc1c(F)ccc2cc(O)cc(-c3ncc4c(N5C[C@@H]6CC[C@H]5CN6)nn(C5CC5)c4n3)c12 [Example 101, 4-(3-((1S,4S)-2,5-diazabicyclo[2.2.2]octan-2-yl)-1-cyclopropyl-1H-pyrazolo[3,4-d]pyrimidin-6-yl)-5-ethynyl-6-fluoronaphthalen-2-ol] | > 10000 | – |
| C#Cc1c(F)ccc2cc(O)cc(-c3nc4c5c(nn(C)c5c3F)N3C[C@H]5CC[C@H](N5)[C@H]3CO4)c12 [Example 95, 5-ethynyl-6-fluoro-4-[(4R,7S,8S)-14-fluoro-16-methyl-10-oxa-2,12,16,17,19-pentazapentacyclo[9.6.1.14,7.02,8.015,18]nonadeca-1(17),11(18),12,14-tetraen-13-yl]naphthalen-2-ol] | > 10000 | – |
| C#Cc1c(F)ccc2cc(O)cc(-c3nc(C(F)(F)F)c4c([C@H]5[C@@H]6CNC[C@@H]65)nn(C5CC5)c4c3F)c12 [Example 55, 4-[3-(3-azabicyclo[3.1.0]hexan-6-yl)-1-cyclopropyl-7-fluoro-4-(trifluoromethyl)pyrazolo[4,3-c]pyridin-6-yl]-5-ethynyl-6-fluoro-naphthalen-2-ol] | 499 | – |
| C#Cc1c(F)ccc2cc(O)cc(-c3ncc4c(N5C[C@@H]6CNC[C@@H]65)nn(C5CC5)c4c3F)c12 [Example 37, 4-[1-cyclopropyl-3-[(1S,5R)-3,6-diazabicyclo[3.2.0]heptan-6-yl]-7-fluoro-pyrazolo[4,3-c]pyridin-6-yl]-5-ethynyl-6-fluoro-naphthalen-2-ol] | 6670 | – |
| C#Cc1c(F)ccc2cc(O)cc(-c3ncc4c(C5CC6CCC5CN6)nn(C)c4c3F)c12 (stereo not drawn) [Example 43, 4-[3-(2-azabicyclo[2.2.2]octan-5-yl)-7-fluoro-1-methyl-pyrazolo[4,3-c]pyridin-6-yl]-5-ethynyl-6-fluoro-naphthalen-2-ol] | > 10000 | – |
| C#Cc1c(F)ccc2cc(O)cc(-c3nc(C4CCC4)c4c([C@H]5[C@@H]6CNC[C@@H]65)nn(C5CC5)c4c3F)c12 [Example 54, 4-[3-(3-azabicyclo[3.1.0]hexan-6-yl)-4-cyclobutyl-1-cyclopropyl-7-fluoro-pyrazolo[4,3-c]pyridin-6-yl]-5-ethynyl-6-fluoro-naphthalen-2-ol] | 16.4 | – |
| C#Cc1c(F)ccc2cc(O)cc(-c3nc(N4CCC4)c4c([C@H]5[C@@H]6CNC[C@@H]65)nn(C5CC5)c4c3F)c12 [Example 79, 4-(4-(azetidin-1-yl)-3-((1R,5S,6r)-3-azabicyclo[3.1.0]hexan-6-yl)-1-cyclopropyl-7-fluoro-1H-pyrazolo[4,3-c]pyridin-6-yl)-5-ethynyl-6-fluoronaphthalen-2-ol] | 603 | – |
| C#Cc1c(F)ccc2cc(O)cc(-c3nc(C(=C)C)c4c(N5C[C@@H]6CC[C@H]5CN6)nn(C5CC5)c4c3F)c12 [Example 89, 4-(3-((1S,4S)-2,5-diazabicyclo[2.2.2]octan-2-yl)-1-cyclopropyl-7-fluoro-4-(prop-1-en-2-yl)-1H-pyrazolo[4,3-c]pyridin-6-yl)-5-ethynyl-6-fluoronaphthalen-2-ol] | 3730 | – |
| C#Cc1c(F)ccc2cc(O)cc(-c3nc(Cc4ccccc4)c4c([C@H]5[C@@H]6CNC[C@@H]65)nn(C5CC5)c4c3F)c12 [Example 52, 4-[3-(3-azabicyclo[3.1.0]hexan-6-yl)-4-benzyl-1-cyclopropyl-7-fluoro-pyrazolo[4,3-c]pyridin-6-yl]-5-ethynyl-6-fluoro-naphthalen-2-ol] | 3890 | – |
| C#Cc1c(F)ccc2cc(O)cc(-c3nc(C(C)(C)O)c4c([C@H]5[C@@H]6CNC[C@@H]65)nn(C5CC5)c4c3F)c12 [Example 56, 4-[3-(3-azabicyclo[3.1.0]hexan-6-yl)-1-cyclopropyl-7-fluoro-4-(1-hydroxy-1-methyl-ethyl)pyrazolo[4,3-c]pyridin-6-yl]-5-ethynyl-6-fluoro-naphthalen-2-ol] | 152 | – |
| C#Cc1c(F)ccc2cc(O)cc(-c3ncc4c(C5C(=O)C6CCC5CN6)nn(C)c4c3F)c12 (stereo not drawn) [Example 41, 5-[6-(8-ethynyl-7-fluoro-3-hydroxy-1-naphthyl)-7-fluoro-1-methyl-pyrazolo[4,3-c]pyridin-3-yl]-2-azabicyclo[2.2.2]octan-6-one] | > 10000 | – |
| C#Cc1c(F)ccc2cc(O)cc(-c3nc(OC4COC4)c4c([C@H]5[C@@H]6CNC[C@@H]65)nn(C5CC5)c4c3F)c12 [Example 71, 4-(3-((1R,5S,6r)-3-azabicyclo[3.1.0]hexan-6-yl)-1-cyclopropyl-7-fluoro-4-(oxetan-3-yloxy)-1H-pyrazolo[4,3-c]pyridin-6-yl)-5-ethynyl-6-fluoronaphthalen-2-ol] | > 10000 | – |
| C#Cc1c(F)ccc2cc(O)cc(-c3nc(C)c4c([C@H]5[C@@H]6CNC[C@@H]65)nn(C5CC5)c4c3F)c12 [Example 51, 4-[3-(3-azabicyclo[3.1.0]hexan-6-yl)-1-cyclopropyl-7-fluoro-4-methyl-pyrazolo[4,3-c]pyridin-6-yl]-5-ethynyl-6-fluoro-naphthalen-2-ol] | 250 | – |
| C#Cc1c(F)ccc2cc(O)cc(-c3nc(CCC#N)c4c([C@H]5[C@@H]6CNC[C@@H]65)nn(C5CC5)c4c3F)c12 [Example 50, 3-[3-(3-azabicyclo[3.1.0]hexan-6-yl)-1-cyclopropyl-6-(8-ethynyl-7-fluoro-3-hydroxy-1-naphthyl)-7-fluoro-pyrazolo[4,3-c]pyridin-4-yl]propanenitrile] | 490 | – |
| C#Cc1c(F)ccc2cc(O)cc(-c3nc(N(C)C)c4c([C@H]5[C@@H]6CNC[C@@H]65)nn(C5CC5)c4c3F)c12 [Example 78, 4-(3-((1R,5S,6r)-3-azabicyclo[3.1.0]hexan-6-yl)-1-cyclopropyl-4-(dimethylamino)-7-fluoro-1H-pyrazolo[4,3-c]pyridin-6-yl)-5-ethynyl-6-fluoronaphthalen-2-ol] | 89.2 | – |
| C#Cc1c(F)ccc2cc(O)cc(-c3ncc4c(C5[C@H]6CNC[C@@H]56)nn5c4c3OCC5)c12 (stereo partly drawn) [Example 94, 4-[3-[(1S,5R)-3-azabicyclo[3.1.0]hexan-6-yl]-9-oxa-1,2,6-triazatricyclo[6.3.1.04,12]dodeca-2,4,6,8(12)-tetraen-7-yl]-5-ethynyl-6-fluoro-naphthalen-2-ol] | > 10000 | – |
| C#Cc1c(F)ccc2cc(O)cc(-c3nc(N(C)CC)c4c([C@H]5[C@@H]6CNC[C@@H]65)nn(C5CC5)c4c3F)c12 [Example 81, 4-(3-((1R,5S,6r)-3-azabicyclo[3.1.0]hexan-6-yl)-1-cyclopropyl-4-(ethyl(methyl)amino)-7-fluoro-1H-pyrazolo[4,3-c]pyridin-6-yl)-5-ethynyl-6-fluoronaphthalen-2-ol] | 74.6 | – |
| C#Cc1c(F)ccc2cc(O)cc(-c3ncc4c(N5C[C@@H]6CC[C@H]5CN6)c(C)n(C)c4c3F)c12 [Example 107, 4-(3-((1S,4S)-2,5-diazabicyclo[2.2.2]octan-2-yl)-7-fluoro-1,2-dimethyl-1H-pyrrolo[3,2-c]pyridin-6-yl)-5-ethynyl-6-fluoronaphthalen-2-ol] | > 10000 | – |
| C#Cc1c(F)ccc2cc(O)cc(-c3ncc4c(N5C[C@@H](C)N[C@@H](C)C5)nn(C)c4c3F)c12 [Example 32, 4-[3-[(3R,5S)-3,5-dimethylpiperazin-1-yl]-7-fluoro-1-methyl-pyrazolo[4,3-c]pyridin-6-yl]-5-ethynyl-6-fluoro-naphthalen-2-ol] | > 50000 | – |
| C#Cc1c(F)ccc2cc(O)cc(-c3ncc4c(N5C6CNCC5C6)nn(C)c4c3F)c12 [Example 35, 4-[3-(3,6-diazabicyclo[3.1.1]heptan-6-yl)-7-fluoro-1-methyl-pyrazolo[4,3-c]pyridin-6-yl]-5-ethynyl-6-fluoro-naphthalen-2-ol] | 4660 | – |
| C#Cc1c(F)ccc2cc(O)cc(-c3nc(N(CC)CC)c4c([C@H]5[C@@H]6CNC[C@@H]65)nn(C5CC5)c4c3F)c12 [Example 80, 4-(3-((1R,5S,6r)-3-azabicyclo[3.1.0]hexan-6-yl)-1-cyclopropyl-4-(diethylamino)-7-fluoro-1H-pyrazolo[4,3-c]pyridin-6-yl)-5-ethynyl-6-fluoronaphthalen-2-ol] | 126 | – |
| C#Cc1c(F)ccc2cc(O)cc(-c3ncc4c(NCCN)nn(C)c4c3F)c12 [Example 93, 4-(3-((2-aminoethyl)amino)-7-fluoro-1-methyl-1H-pyrazolo[4,3-c]pyridin-6-yl)-5-ethynyl-6-fluoronaphthalen-2-ol] | 9260 | – |
| C#Cc1c(F)ccc2cc(O)cc(-c3ncc4c([C@H]5[C@@H]6CN[C@@H](C(=O)OC)[C@@H]65)nn(C)c4c3F)c12 (racemic) [Example 47, methyl rac-(2R,6S)-6-[6-(8-ethynyl-7-fluoro-3-hydroxy-1-naphthyl)-7-fluoro-1-methyl-pyrazolo[4,3-c]pyridin-3-yl]-3-azabicyclo[3.1.0]hexane-2-carboxylate] | – | 116 |
| C#Cc1c(F)ccc2cc(O)cc(-c3nc(C(C)=O)c4c([C@H]5[C@@H]6CNC[C@@H]65)nn(C5CC5)c4c3F)c12 [Example 84, 1-(3-((1R,5S,6r)-3-azabicyclo[3.1.0]hexan-6-yl)-1-cyclopropyl-6-(8-ethynyl-7-fluoro-3-hydroxynaphthalen-1-yl)-7-fluoro-1H-pyrazolo[4,3-c]pyridin-4-yl)ethan-1-one] | 458 | – |
